Test results as given in US4727080A, “1-substituted derivatives of 6-fluoro-7-(pyrrol-1-yl)-1,4-dihydro-4-oxoquinoline-3-carboxylic acid, their preparation and their application as drugs” (Provesan S.A., priority 1984, dated 1988).
≈ marks a conversion by molar mass, not a printed value.

What was measured:
[1] = tested on: Bacillus subtilis ATCC 6633; assay: "In vitro" MIC, Bacillus subtilis; type: cell-based; details: ATCC6633; Bacillus subtilis ATCC 6633; dextrose agar, 37° C., 20 hours; read-out: "In vitro" MIC
Description: (§1) Antimicrobial pharmacological activity (G. L. Daquet and Y. A. Chabbect, Techniques en bacteriologie (Techniques in bacteriology), vol. 3, Flammarion Medecine-Sciences, Paris, 1972, and W. B. Hugo and A. D. Rusell, Pharmaceutical Microbiology, Blackwell Scientific Publications, London (1977).
Bacillus subtilis ATCC 6633
(§2) A streak culture of each of the microorganisms is formed in tubes of antibiotics agar no. 1 and incubated for 20 hours at 37° C. A culture loop is then taken and a culture is formed in a tryptone-soya broth and incubated for 20 hours at 37° C. The resulting culture is diluted to 1/4 with Ringer's physiological solution to give a standardized suspension of 10^5 ufc/ml for each organism.
(§3) Starting from a solution of 1000 μg/ml in 0.1N NaOH, each product is diluted successively in dextrose agar (melted beforehand and kept at 50° C.) to give the following concentrations: 64-32-16-8-4-2-1-0.5-0.25-0.125 μg of derivative/ml of medium.
(§4) After this, each concentration of each product is divided up into Petri dishes of 10 cm diameter at a rate of 10 ml of medium per dish and using as many dishes as there are microorganisms to be tested.
(§5) Once the medium has cooled, the dishes are treated with the inoculations at a rate of 0.4 ml of inoculation per dish. They are spread out with a Drigalski loop and the supernatant is collected. The inoculated dishes are incubated at 37° C. for 20 hours.

[2] = tested on: Micrococcus flavus ATCC 10240; assay: "In vitro" MIC, Micrococcus flavus; type: cell-based; details: ATCC10240; Micrococcus flavus ATCC 10240; dextrose agar, 37° C., 20 hours; read-out: "In vitro" MIC
Description: as §1
Micrococcus flavus ATTC 10240
as §2, §3, §4, §5

Sarcina lutea ATCC 9341 = assay: "In vitro" MIC, Sarcina lutea; type: cell-based; details: Micrococcus luteus, ATCC9341; Sarcina lutea ATCC 9341; dextrose agar, 37° C., 20 hours; read-out: "In vitro" MIC
Description: as §1, §2, §3, §4, §5

[3] = tested on: Staphylococcus aureus ATCC 5488/23; assay: "In vitro" MIC, Staphylococcus aureus ATCC 5488/23; type: cell-based; details: ATCC5488; Staphylococcus aureus ATCC 5488/23; dextrose agar, 37° C., 20 hours; read-out: "In vitro" MIC
Description: as §1
Staphylococcus aureus ATCC 5488/23
as §2, §3, §4, §5

[4] = tested on: Staphylococcus aureus ATCC 25178; assay: "In vitro" MIC, Staphylococcus aureus ATCC 25178; type: cell-based; details: ATCC25178; Staphylococcus aureus ATCC 25178; dextrose agar, 37° C., 20 hours; read-out: "In vitro" MIC
Description: as §1
Staphylococcus aureus ATCC 25178
as §2, §3, §4, §5

[5] = tested on: Streptococcus faecalis ATCC 10541; assay: "In vitro" MIC, Streptococcus faecalis; type: cell-based; details: Enterococcus faecalis, ATCC10541; Streptococcus faecalis ATCC 10541; dextrose agar, 37° C., 20 hours; read-out: "In vitro" MIC
Description: as §1
Streptococcus faecalis ATCC 10541
as §2, §3, §4, §5

[6] = tested on: Enterobacter aerogenes ATCC 15038; assay: "In vitro" MIC, Enterobacter aerogenes; type: cell-based; details: Klebsiella aerogenes, ATCC15038; Enterobacter aerogenes ATCC 15038; dextrose agar, 37° C., 20 hours; read-out: "In vitro" MIC
Description: as §1
Enterobacter aerogenes ATCC 15038
as §2, §3, §4, §5

[7] = tested on: Enterobacter cloacae CHSP-20; assay: "In vitro" MIC, Enterobacter cloacae; type: cell-based; details: CHSP20; Enterobacter cloacae CHSP-20; dextrose agar, 37° C., 20 hours; read-out: "In vitro" MIC
Description: as §1
Enterobacter cloacae CHSP-20
as §2, §3, §4, §5

[8] = tested on: Escherichia coli ATCC 10536; assay: "In vitro" MIC, Escherichia coli ATCC 10536; type: cell-based; details: ATCC10536; Escherichia coli ATCC 10536; dextrose agar, 37° C., 20 hours; read-out: "In vitro" MIC
Description: as §1
Escherichia coli ATCC 10536
as §2, §3, §4, §5

Escherichia coli R-1513 = assay: "In vitro" MIC, Escherichia coli R-1513; type: cell-based; details: R1513; Escherichia coli R-1513; dextrose agar, 37° C., 20 hours; read-out: "In vitro" MIC
Description: as §1, §2, §3, §4, §5

[9] = tested on: Klebsiella pneumoniae ATCC 10031; assay: "In vitro" MIC, Klebsiella pneumoniae; type: cell-based; details: ATCC10031; Klebsiella pneumoniae ATCC 10031; dextrose agar, 37° C., 20 hours; read-out: "In vitro" MIC
Description: as §1
Klebsiella pneumoniae ATCC 10031
as §2, §3, §4, §5

[10] = tested on: Citrobacter freundii ATCC 11606; assay: "In vitro" MIC, Citrobacter freundii; type: cell-based; details: ATCC11606; Citrobacter freundii ATCC 11606; dextrose agar, 37° C., 20 hours; read-out: "In vitro" MIC
Description: as §1
Citrobacter freundii ATCC 11606
as §2, §3, §4, §5

[11] = tested on: Proteus mirabilis ATCC 4675; assay: "In vitro" MIC, Proteus mirabilis; type: cell-based; details: ATCC4675; Proteus mirabilis ATCC 4675; dextrose agar, 37° C., 20 hours; read-out: "In vitro" MIC
Description: as §1
Proteus mirabilis ATCC 4675
as §2, §3, §4, §5

Proteus morganii CHSP-16 = assay: "In vitro" MIC, Proteus morganii; type: cell-based; details: Morganella morganii, CHSP16; Proteus morganii CHSP-16; dextrose agar, 37° C., 20 hours; read-out: "In vitro" MIC
Description: as §1, §2, §3, §4, §5

[12] = tested on: Pseudomonas aeruginosa 25115; assay: "In vitro" MIC, Pseudomonas aeruginosa 25115; type: cell-based; details: Pseudomonas aeruginosa 25115; dextrose agar, 37° C., 20 hours; read-out: "In vitro" MIC
Description: as §1
Pseudomonas aeruginosa 25115
as §2, §3, §4, §5

[13] = tested on: Pseudomonas aeruginosa ADSA 47; assay: "In vitro" MIC, Pseudomonas aeruginosa ADSA 47; type: cell-based; details: ADSA47; Pseudomonas aeruginosa ADSA 47; dextrose agar, 37° C., 20 hours; read-out: "In vitro" MIC
Description: as §1
Pseudomonas aeruginosa ADSA 47
as §2, §3, §4, §5

[14] = tested on: Salmonella typhimurium AMES 98; assay: "In vitro" MIC, Salmonella typhimurium AMES 98; type: cell-based; details: Salmonella enterica; Salmonella typhimurium AMES 98; dextrose agar, 37° C., 20 hours; read-out: "In vitro" MIC
Description: as §1
Salmonella typhimurium AMES 98
as §2, §3, §4, §5

[15] = tested on: Salmonella typhimurium AMES 100; assay: "In vitro" MIC, Salmonella typhimurium AMES 100; type: cell-based; details: Salmonella enterica; Salmonella typhimurium AMES 100; dextrose agar, 37° C., 20 hours; read-out: "In vitro" MIC
Description: as §1
Salmonella typhimurium AMES 100
as §2, §3, §4, §5

[16] = tested on: Serratia marcescens ATTC 13880; assay: "In vitro" MIC, Serratia marcescens; type: cell-based; details: ATTC13880; Serratia marcescens ATTC 13880; dextrose agar, 37° C., 20 hours; read-out: "In vitro" MIC
Description: as §1
Serratia marcescens ATTC 13880
as §2, §3, §4, §5

Shigella flexnerii = assay: "In vitro" MIC, Shigella flexnerii; type: cell-based; details: 20 h, read-out: "In vitro" MIC
Description: as §1, §2, §3, §4, §5

Acute toxicity to mice = details: mouse, in vivo, ip, suspension in 5% gum arabic, mortality over 7 days
Description: The experimental animals used to determine this toxicity were albino mice of the C.F.L.P. strain and of both sexes, weighing between 19 and 25 grams. After an 18-hour fasting period with water "ad libitum", the derivatives forming the subject of the present invention are administered intraperitoneally as a suspension in 5% gum arabic. The volume of suspension administered was 0.4 ml/20 grams (20 ml/kg) in all cases, the concentration of the suspension being changed according to the dose administered.
One hour after administration of the derivatives, the animals are given a standard Panlab rat-mouse food. The mortality was observed over a period of 7 days. Differences in mortality between the sexes were not observed with any of the products.

[17] = tested on: Enterobacteriaceae (Pseudomonas aeruginosa); assay: "In vitro" antimicrobial activity compared with nalidixic acid, Enterobacteriaceae (Pseudomonas aeruginosa); type: cell-based
Description: as §1, §2, §3, §4, §5

Gram-positive cocci = assay: "In vitro" antimicrobial activity compared with nalidixic acid, Gram-positive cocci; type: cell-based
Description: as §1, §2, §3, §4, §5

O=C(O)c1cn(CCF)c2cc(-n3cccc3)c(F)cc2c1=O [Example 6, 6-fluoro-7-(pyrrol-1-yl)-1-fluoroethyl-4-oxo-1,4-dihydroquinoline-3-carboxylate acid]
MIC [1]: ≤ 0.031 µg/mL | MIC [2]: 1 µg/mL (≈ 3.14 µM) | MIC (Sarcina lutea ATCC 9341): 2 µg/mL (≈ 6.28 µM) | MIC [3]: 0.062 µg/mL (≈ 0.195 µM) | MIC [4]: 0.062 µg/mL (≈ 0.195 µM) | MIC [5]: 0.5 µg/mL (≈ 1.57 µM) | MIC [6]: 1 µg/mL (≈ 3.14 µM) | MIC [7]: 0.5 µg/mL (≈ 1.57 µM) | MIC [8]: ≤ 0.031 µg/mL | MIC (Escherichia coli R-1513): 0.5 µg/mL (≈ 1.57 µM) | MIC [9]: 0.062 µg/mL (≈ 0.195 µM) | MIC [10]: 1 µg/mL (≈ 3.14 µM) | MIC [11]: 1 µg/mL (≈ 3.14 µM) | MIC (Proteus morganii CHSP-16): 0.5 µg/mL (≈ 1.57 µM) | MIC [12]: 4 µg/mL (≈ 12.6 µM) | MIC [13]: 16 µg/mL (≈ 50.3 µM) | MIC [14]: ≤ 0.031 µg/mL | MIC [15]: 0.25 µg/mL (≈ 0.785 µM) | MIC [16]: 1 µg/mL (≈ 3.14 µM) | MIC (Shigella flexnerii): 1 µg/mL (≈ 3.14 µM) | LD50 at 168 h (Acute toxicity to mice): > 1600 mg/kg | "in vitro" activity compared with nalidixic acid [17]: greater "in vitro" activity than nalidixic acid | "in vitro" activity compared with nalidixic acid (Gram-positive cocci): greater "in vitro" activity than nalidixic acid
